Patent US20260092071A1, “COMPOUNDS AND COMPOSITIONS AS SMARCA2/4 DEGRADERS AND USES THEREOF” (REGENTS OF THE UNIVERSITY OF MICHIGAN, priority 2022, published 2026)
Like-named read-outs stand apart in the source and are kept apart here.

What was measured:
[1] = biological target: SMARCA2 (Homo sapiens, UniProt P51531); test: HiBit assay in engineered HT1080 CRISPR knock-in cell, 6 hrs (B series), SMARCA2; assay type: cell-based; settings: 6 hrs incubation; for SMARC A2 HT1080 HiBit Dmax (%) / DC50: HT1080 CRISPR knock-in cells; for DC50: read-out: SMARC A2 HT1080 HiBit DC50; for Dmax: HT-1080, HT1080 CRISPR knock-in cells, read-out: SMARC A2 HT1080 HiBit Dmax (%)
Outline: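 Engineered HT1080 knock-in cells, 2000 cells/well, 6 hrs compound exposure, 37° C/5% CO2, 0.1% DMSO final. Lytic detection: LgBiT 1:100 plus HiBiT substrate 1:50 in lytic buffer, 10 min shake at RT, luminescence read.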

[2] = biological target: SMARCA4 (Homo sapiens, UniProt P51532); test: HiBit assay in engineered HT1080 CRISPR knock-in cell, 6 hrs (B series), SMARCA4; assay type: cell-based; settings: for SMARC A4 HT1080 HiBit Dmax(%) / DC50: HT1080 CRISPR knock-in cells; for DC50: read-out: SMARC A4 HT1080 HiBit DC50
Outline: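 Protein abundance is measured in HiBiT-tagged HT1080 CRISPR knock-in cells after a 6 hr compound treatment (0.1% DMSO) by lytic Nano-Glo HiBiT luminescence.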

[3] = HT-1080, HT1080 CRISPR knock-in cells, 6 hrs incubation, read-out: SMARC A4 HT1080 HiBit Dmax(%)

SMARCA4, sequence (P51532 whole entry): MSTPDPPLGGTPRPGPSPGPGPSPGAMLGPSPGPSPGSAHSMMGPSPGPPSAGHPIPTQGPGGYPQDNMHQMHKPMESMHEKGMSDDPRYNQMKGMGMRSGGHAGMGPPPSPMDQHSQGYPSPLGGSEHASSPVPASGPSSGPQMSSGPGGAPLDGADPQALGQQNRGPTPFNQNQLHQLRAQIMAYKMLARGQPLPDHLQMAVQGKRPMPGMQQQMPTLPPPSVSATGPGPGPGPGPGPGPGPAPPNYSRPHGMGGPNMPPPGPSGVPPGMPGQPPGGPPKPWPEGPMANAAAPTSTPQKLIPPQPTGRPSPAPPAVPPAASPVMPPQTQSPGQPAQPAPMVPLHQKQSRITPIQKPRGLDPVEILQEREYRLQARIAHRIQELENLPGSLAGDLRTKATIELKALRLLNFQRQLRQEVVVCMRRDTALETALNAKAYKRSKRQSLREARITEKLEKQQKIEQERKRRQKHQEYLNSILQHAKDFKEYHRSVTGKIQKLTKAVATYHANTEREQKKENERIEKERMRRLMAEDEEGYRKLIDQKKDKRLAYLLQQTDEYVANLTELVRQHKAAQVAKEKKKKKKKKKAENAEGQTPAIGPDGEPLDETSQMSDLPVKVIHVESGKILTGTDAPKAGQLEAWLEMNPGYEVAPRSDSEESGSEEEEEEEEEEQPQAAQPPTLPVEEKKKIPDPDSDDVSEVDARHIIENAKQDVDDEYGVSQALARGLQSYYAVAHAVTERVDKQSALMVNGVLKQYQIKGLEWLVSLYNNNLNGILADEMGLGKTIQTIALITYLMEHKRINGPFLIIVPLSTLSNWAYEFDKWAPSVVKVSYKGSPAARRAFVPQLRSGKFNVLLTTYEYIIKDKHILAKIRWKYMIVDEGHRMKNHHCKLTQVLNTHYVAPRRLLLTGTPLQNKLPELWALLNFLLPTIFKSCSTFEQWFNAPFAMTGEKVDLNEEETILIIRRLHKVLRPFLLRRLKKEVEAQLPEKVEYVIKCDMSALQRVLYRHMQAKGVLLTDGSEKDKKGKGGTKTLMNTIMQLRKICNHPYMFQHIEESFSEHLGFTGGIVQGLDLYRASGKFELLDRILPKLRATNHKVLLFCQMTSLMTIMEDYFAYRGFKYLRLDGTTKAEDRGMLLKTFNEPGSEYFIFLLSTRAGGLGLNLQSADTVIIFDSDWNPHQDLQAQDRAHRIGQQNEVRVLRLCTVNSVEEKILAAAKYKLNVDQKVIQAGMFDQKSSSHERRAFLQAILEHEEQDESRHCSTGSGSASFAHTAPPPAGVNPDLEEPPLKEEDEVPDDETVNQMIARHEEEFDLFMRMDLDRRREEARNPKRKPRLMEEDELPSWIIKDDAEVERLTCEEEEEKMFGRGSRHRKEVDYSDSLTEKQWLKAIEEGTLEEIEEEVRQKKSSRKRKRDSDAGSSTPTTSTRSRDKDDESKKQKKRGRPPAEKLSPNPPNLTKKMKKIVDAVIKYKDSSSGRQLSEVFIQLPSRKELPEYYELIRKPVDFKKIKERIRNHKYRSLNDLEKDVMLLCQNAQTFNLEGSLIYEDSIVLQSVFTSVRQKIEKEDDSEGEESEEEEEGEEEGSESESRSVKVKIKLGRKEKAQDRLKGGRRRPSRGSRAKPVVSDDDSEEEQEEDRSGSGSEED
SMARCA2, sequence (P51531 whole entry): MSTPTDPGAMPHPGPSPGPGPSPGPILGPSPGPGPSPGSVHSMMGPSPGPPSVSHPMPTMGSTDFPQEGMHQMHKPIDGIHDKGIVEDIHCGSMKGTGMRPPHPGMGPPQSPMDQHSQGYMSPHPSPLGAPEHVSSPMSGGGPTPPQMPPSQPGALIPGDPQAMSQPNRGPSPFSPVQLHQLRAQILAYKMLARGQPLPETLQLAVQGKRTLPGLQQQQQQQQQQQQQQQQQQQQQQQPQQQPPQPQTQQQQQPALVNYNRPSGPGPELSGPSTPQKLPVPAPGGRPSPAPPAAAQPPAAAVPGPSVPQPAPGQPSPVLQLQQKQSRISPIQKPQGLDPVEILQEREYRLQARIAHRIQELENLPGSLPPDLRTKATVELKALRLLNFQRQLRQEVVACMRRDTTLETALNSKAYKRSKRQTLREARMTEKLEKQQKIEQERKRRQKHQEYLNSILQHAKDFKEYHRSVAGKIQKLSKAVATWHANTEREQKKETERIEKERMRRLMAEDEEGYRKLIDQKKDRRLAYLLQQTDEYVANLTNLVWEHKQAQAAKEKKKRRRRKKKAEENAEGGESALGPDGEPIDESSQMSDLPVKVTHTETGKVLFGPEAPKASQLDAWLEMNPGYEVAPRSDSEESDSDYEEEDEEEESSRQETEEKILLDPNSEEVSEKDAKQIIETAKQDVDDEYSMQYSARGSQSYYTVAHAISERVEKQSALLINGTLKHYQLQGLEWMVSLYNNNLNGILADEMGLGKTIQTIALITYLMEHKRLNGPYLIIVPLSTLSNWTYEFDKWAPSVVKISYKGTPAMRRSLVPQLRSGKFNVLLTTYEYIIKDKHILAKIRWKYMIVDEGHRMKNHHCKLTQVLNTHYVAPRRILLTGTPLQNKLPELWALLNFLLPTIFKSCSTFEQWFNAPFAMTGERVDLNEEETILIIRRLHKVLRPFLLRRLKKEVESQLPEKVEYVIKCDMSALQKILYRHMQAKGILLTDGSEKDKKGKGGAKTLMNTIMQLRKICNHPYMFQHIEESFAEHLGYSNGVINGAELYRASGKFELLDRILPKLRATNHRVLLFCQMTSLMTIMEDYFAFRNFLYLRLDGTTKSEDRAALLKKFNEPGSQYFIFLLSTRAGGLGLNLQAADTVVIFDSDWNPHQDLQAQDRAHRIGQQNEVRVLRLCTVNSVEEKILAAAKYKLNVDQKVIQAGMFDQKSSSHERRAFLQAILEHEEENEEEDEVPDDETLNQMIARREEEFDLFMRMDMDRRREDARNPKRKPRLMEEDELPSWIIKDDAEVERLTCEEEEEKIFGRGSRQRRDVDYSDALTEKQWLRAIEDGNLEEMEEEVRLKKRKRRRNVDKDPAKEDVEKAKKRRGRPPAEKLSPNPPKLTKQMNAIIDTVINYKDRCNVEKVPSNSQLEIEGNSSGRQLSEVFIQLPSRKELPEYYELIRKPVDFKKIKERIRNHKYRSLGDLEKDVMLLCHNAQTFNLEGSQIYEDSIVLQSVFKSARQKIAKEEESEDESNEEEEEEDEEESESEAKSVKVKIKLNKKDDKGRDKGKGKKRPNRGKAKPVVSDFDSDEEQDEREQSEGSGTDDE

Structure (SMILES)	SMARC A2 HT1080 HiBit Dmax (%) [1]	DC50 [1]	SMARC A4 HT1080 HiBit Dmax(%) ([2]; 6 hrs incubation)	DC50 ([2]; 6 hrs incubation)	Dmax [1]	Dmax [2, 3]	Dmax ([2]; HT-1080, read-out: SMARC A4 HT1080 HiBit Dmax(%), HT1080 CRISPR knock-in cells, 6 hrs incubation)
Cc1cc(C(C(=O)N2C[C@H](O)C[C@H]2C(=O)N[C@@H](CN2CCC(c3cccc4c3C(C)(C)c3nc(=O)c5c(Cl)cccc5n3-4)CC2)c2ccc(-c3scnc3C)cc2)C(C)C)on1 (stereo partly drawn) [Compound B154, (2S,4R)-N-((R)-2-(4-(4-chloro-7,7-dimethyl-5-oxo-5,7-dihydroindolo[1,2-a]quinazolin-8-yl)piperidin-1-yl)-1-(4-(4-methylthiazol-5-yl)phenyl)ethyl)-4-hydroxy-1-(3-methyl-2-(3-methylisoxazol-5-yl)butanoyl)pyrrolidine-2-carboxamide]	A (A (>90% degradation))	< 100 nM	B (B (70-90% degradation))	< 100 nM			
Cc1cc(C(C(=O)N2C[C@H](O)C[C@H]2C(=O)N[C@@H](CN2CCC(N3CCC(c4cccc5c4C(C)(C)c4nc(=O)c6c(Cl)cccc6n4-5)CC3)CC2)c2ccc(-c3scnc3C)cc2)C(C)C)on1 (stereo partly drawn) [Compound B155, (2S,4R)-N-((R)-2-(4-(4-chloro-7,7-dimethyl-5-oxo-5,7-dihydroindolo[1,2-a]quinazolin-8-yl)-[1,4'-bipiperidin]-1'-yl)-1-(4-(4-methylthiazol-5-yl)phenyl)ethyl)-4-hydroxy-1-(3-methyl-2-(3-methylisoxazol-5-yl)butanoyl)pyrrolidine-2-carboxamide]		< 100 nM		< 100 nM	> 90%	70 to 90%	
Cc1ncsc1-c1ccc([C@H](CN2CCOCC2)NC(=O)[C@@H]2C[C@@H](O)CN2C(=O)[C@@H](c2cc(O[C@H]3CC[C@H](CN4CCC(c5ccc6c(c5)-n5c(nc(=O)c7c(Cl)cccc75)C65CCCCC5)CC4)CC3)no2)C(C)C)cc1 [Compound B158, (2S,4R)-1-((R)-2-(3-(((11,4R)-4-((4-(4′-chloro-5′-oxo-5′H-spiro[cyclohexane-1,7′-indolo[1,2-a]quinazolin]-10′-yl)piperidin-1-yl)methyl)cyclohexyl)oxy)isoxazol-5-yl)-3-methylbutanoyl)-4-hydroxy-N-((R)-1-(4-(4-methylthiazol-5-yl)phenyl)-2-morpholinoethyl)pyrrolidine-2-carboxamide]		< 100 nM		< 100 nM	> 90%	> 90%	
Cc1nc(C)c(-c2ccc([C@H](C)NC(=O)[C@@H]3C[C@@H](O)CN3C(=O)[C@@H](n3cc([C@H]4CC[C@H](CN5CCC(c6ccc7c(c6)-n6c(nc(=O)c8c(Cl)cccc86)C7(C)C)CC5)CC4)nn3)C(C)(C)C)cc2)s1 [Compound B164, (2S,4R)-1-((S)-2-(4-((1r,4S)-4-((4-(4-chloro-7,7-dimethyl-5-oxo-5,7-dihydroindolo[1,2-a]quinazolin-10-yl)piperidin-1-yl)methyl)cyclohexyl)-1H-1,2,3-triazol-1-yl)-3,3-dimethylbutanoyl)-N-((S)-1-(4-(2,4-dimethylthiazol-5-yl)phenyl)ethyl)-4-hydroxypyrrolidine-2-carboxamide]		< 100 nM		< 100 nM	> 90%	70 to 90%	

Other lines, results leading:

SMARC A2 HT1080 HiBit Dmax (%) [1]	DC50 [1]	SMARC A4 HT1080 HiBit Dmax(%) ([2]; 6 hrs incubation)	DC50 ([2]; 6 hrs incubation)	Dmax [1]	Dmax [2, 3]	Dmax ([2]; HT-1080, read-out: SMARC A4 HT1080 HiBit Dmax(%), HT1080 CRISPR knock-in cells, 6 hrs incubation)	Structure (SMILES)
	< 100 nM		< 100 nM	> 90%	50 to 69%		C[C@H](NC(=O)[C@@H]1C[C@@H](O)CN1C(=O)[C@@H](n1cc([C@H]2CC[C@H](CN3CCC(c4ccc5c(c4)-n4c(nc(=O)c6c(Cl)cccc64)C5(C)C)CC3)CC2)nn1)C(C)(C)C)c1ccc(-c2scnc2C#CCN2CCOCC2)cc1 [Compound B156, (2S,4R)-1-((R)-2-(4-((1r,4R)-4-((4-(4-chloro-7,7-dimethyl-5-oxo-5,7-dihydroindolo[1,2-a]quinazolin-10-yl)piperidin-1-yl)methyl)cyclohexyl)-1H-1,2,3-triazol-1-yl)-3,3-dimethylbutanoyl)-4-hydroxy-N-((S)-1-(4-(4-(3-morpholinoprop-1-yn-1-yl)thiazol-5-yl)phenyl)ethyl)pyrrolidine-2-carboxamide]
	< 100 nM		< 100 nM	> 90%		> 90%	Cc1ncsc1-c1ccc([C@H](CN2CCOCC2)NC(=O)[C@@H]2C[C@@H](O)CN2C(=O)[C@@H](c2cc(O[C@H]3CC[C@H](CN4CCC(c5ccc6c(c5)-n5c(nc(=O)c7c(Cl)cccc75)C6(C)C)CC4)CC3)no2)C(C)C)cc1 [Compound B157, (2S,4R)-1-((R)-2-(3-(((1r,4R)-4-((4-(4-chloro-7,7-dimethyl-5-oxo-5,7-dihydroindolo[1,2-a]quinazolin-10-yl)piperidin-1-yl)methyl)cyclohexyl)oxy)isoxazol-5-yl)-3-methylbutanoyl)-4-hydroxy-N-((R)-1-(4-(4-methylthiazol-5-yl)phenyl)-2-morpholinoethyl)pyrrolidine-2-carboxamide]
A (A (>90% degradation))	< 100 nM	C (C (50-69% degradation))	< 100 nM				Cc1ncsc1-c1ccc([C@H](C)NC(=O)[C@@H]2C[C@@H](O)CN2C(=O)[C@H](C(C)C)n2cc(C3CCC(c4cccc5c4C(C)(C)c4nc(=O)c6c(Cl)cccc6n4-5)CC3)nn2)cc1 (stereo partly drawn) [Compound B161, (2S,4R)-1-((S)-2-(4-(4-(4-chloro-7,7-dimethyl-5-oxo-5,7-dihydroindolo[1,2-a]quinazolin-8-yl)cyclohexyl)-1H-1,2,3-triazol-1-yl)-3-methylbutanoyl)-4-hydroxy-N-((S)-1-(4-(4-methylthiazol-5-yl)phenyl)ethyl)pyrrolidine-2-carboxamide]
A (A (>90% degradation))	< 100 nM	C (C (50-69% degradation))	< 100 nM				Cc1ncsc1-c1ccc([C@H](C)NC(=O)[C@@H]2C[C@@H](O)CN2C(=O)[C@H](C(C)C)n2cc(C3CCC(c4cccc5c4C(C)(C)c4nc(=O)c6c(Cl)cccc6n4-5)CC3)nn2)cc1 (stereo partly drawn) [Compound B162, (2S,4R)-1-((S)-2-(4-(4-(4-chloro-7,7-dimethyl-5-oxo-5,7-dihydroindolo[1,2-a]quinazolin-8-yl)cyclohexyl)-1H-1,2,3-triazol-1-yl)-3-methylbutanoyl)-4-hydroxy-N-((S)-1-(4-(4-methylthiazol-5-yl)phenyl)ethyl)pyrrolidine-2-carboxamide]
	< 100 nM		< 100 nM	> 90%	> 90%		Cc1ncsc1-c1ccc(C(CN2CCOCC2)NC(=O)[C@@H]2C[C@@H](O)CN2C(=O)[C@@H](c2cc(O[C@H]3CC[C@H](CN4CCN(c5ccc6c(c5)-n5c(nc(=O)c7c(Cl)cccc75)C6(C)C)CC4)CC3)no2)C(C)C)cc1 (stereo partly drawn) [Compound B163, (2S,4R)-1-((R)-2-(3-(((11,4R)-4-((4-(4-chloro-7,7-dimethyl-5-oxo-5,7-dihydroindolo[1,2-a]quinazolin-10-yl)piperazin-1-yl)methyl)cyclohexyl)oxy)isoxazol-5-yl)-3-methylbutanoyl)-4-hydroxy-N-((R)-1-(4-(4-methylthiazol-5-yl)phenyl)-2-morpholinoethyl)pyrrolidine-2-carboxamide]
